Data as given in patent US20250115600A1, “COVALENT MODIFIERS OF AKT1 AND USES THEREOF” (Terremoto Biosciences, Inc., priority 2022, published 2025).

Tests used:
AKT1 WT [1] = target: T1, AKT1 WT (Homo sapiens (Human), UniProt P31749); experiment: Live cell target engagement (NanoBRET) in HEK293 cells; type: cell-based; details: HEK293, 2 hours at 37° C.
Target sequence in this assay (P31749 whole entry): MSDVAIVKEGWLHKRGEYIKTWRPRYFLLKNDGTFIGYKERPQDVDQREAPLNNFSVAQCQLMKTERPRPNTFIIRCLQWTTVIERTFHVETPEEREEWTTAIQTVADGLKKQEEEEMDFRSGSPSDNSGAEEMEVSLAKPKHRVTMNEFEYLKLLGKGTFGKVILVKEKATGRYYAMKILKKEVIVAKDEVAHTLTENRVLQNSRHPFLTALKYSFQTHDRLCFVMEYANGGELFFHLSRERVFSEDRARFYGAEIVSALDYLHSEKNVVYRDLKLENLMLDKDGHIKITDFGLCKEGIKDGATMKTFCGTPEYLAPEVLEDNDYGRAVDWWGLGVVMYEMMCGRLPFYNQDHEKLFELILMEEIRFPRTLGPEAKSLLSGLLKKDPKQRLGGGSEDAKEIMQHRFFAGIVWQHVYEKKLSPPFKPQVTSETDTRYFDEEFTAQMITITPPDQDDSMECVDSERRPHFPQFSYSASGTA

AKT1 E17K = AKT1 E17K (Homo sapiens (Human), UniProt P31749, E17K); experiment: as above; type: cell-based; details: for IC50: HEK293, 2 hours at 37° C.
AKT2 = AKT2 (Homo sapiens (Human), UniProt P31751); experiment: as above; type: cell-based; details: HEK293, 2 hours at 37° C.
AKT1 E17K mutant protein = AKT1 E17K mutant protein (Homo sapiens (Human), UniProt P31749, E17K); experiment: Intact mass spectrometry, covalent complex formation and ARQ-092 competition; type: binding; details: for selectivity of complex formation, AKT1 E17K versus AKT1 WT: comparison of the spectra without competitor; for covalent complex formation with AKT1 E17K mutant protein / covalent complex formation with AKT1 E17K mutant protein in presence of competitor: protein 1 μM, compound 1.5 μM, 2 hrs at 37° C., NaBH4 reduction; for covalent complex formation with AKT1 E17K mutant protein: absence of competitor; for covalent complex formation with AKT1 E17K mutant protein in presence of competitor: with ARQ092 (50 μM)
Protocol: (§1) AKT1 WT or AKT1 E17K (1 μM) was treated with a compound from Table 1 (1.5 μM) for 2 hrs at 37° C., with and without ARQ092 (50 μM) competitor as a specificity control. Reversible imines were captured by reductive amination with 5 mM NaBH4 for 5 min. Reduction reactions were quenched by diluting the sample in equal volume acetonitrile+1% TFA, then analyzed by LCMS.
(§2) FIGS. 1 to 25 provide intact mass spectra for AKT1 WT protein and AKT1 E17K mutant protein after incubation with compounds of the present disclosure and subsequent borohydride reduction. […] Further, FIGS. 1 to 10, 12, and 14 to 25 each provide intact mass spectra following the incubation of an AKT1 protein with a compound of the present disclosure both in the absence of a competitor molecule (i.e., ARQ-092, a molecule known to bind to and inhibit the function of AKT1); and in the presence of a significant stoichiometric excess of a competitor molecule.

AKT1 WT [2] = target: T1, AKT1 WT; experiment: as above; type: binding; details: protein 1 μM, compound 1.5 μM, 2 hrs at 37° C., NaBH4 reduction; for covalent complex formation with AKT1 WT protein: absence of competitor; for covalent complex formation with AKT1 WT protein in presence of competitor: with ARQ092 (50 μM)
Protocol: as §1, §2
Target sequence in this assay (P31749 2-480): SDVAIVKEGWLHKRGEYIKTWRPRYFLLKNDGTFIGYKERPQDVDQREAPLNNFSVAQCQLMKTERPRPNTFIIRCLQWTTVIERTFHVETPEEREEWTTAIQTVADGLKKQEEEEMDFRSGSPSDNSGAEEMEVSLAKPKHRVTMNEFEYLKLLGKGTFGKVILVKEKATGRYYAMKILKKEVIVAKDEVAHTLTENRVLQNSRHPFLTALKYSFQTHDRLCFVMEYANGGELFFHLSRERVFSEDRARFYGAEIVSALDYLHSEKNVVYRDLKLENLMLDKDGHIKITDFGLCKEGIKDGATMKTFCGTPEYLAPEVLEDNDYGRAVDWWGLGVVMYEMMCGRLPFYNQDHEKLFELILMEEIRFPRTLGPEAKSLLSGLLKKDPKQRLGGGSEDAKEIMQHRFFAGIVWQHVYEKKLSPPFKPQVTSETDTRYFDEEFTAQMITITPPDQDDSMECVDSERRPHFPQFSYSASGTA

Sequence of AKT1 E17K (P31749 whole entry E17K): as the sequence (P31749 whole entry) above, with E17K counted along it
Sequence of AKT1 E17K mutant protein (P31749 2-480 E17K): as the sequence (P31749 2-480) above, with E16K counted along it
Sequence of AKT2 (P31751 whole entry): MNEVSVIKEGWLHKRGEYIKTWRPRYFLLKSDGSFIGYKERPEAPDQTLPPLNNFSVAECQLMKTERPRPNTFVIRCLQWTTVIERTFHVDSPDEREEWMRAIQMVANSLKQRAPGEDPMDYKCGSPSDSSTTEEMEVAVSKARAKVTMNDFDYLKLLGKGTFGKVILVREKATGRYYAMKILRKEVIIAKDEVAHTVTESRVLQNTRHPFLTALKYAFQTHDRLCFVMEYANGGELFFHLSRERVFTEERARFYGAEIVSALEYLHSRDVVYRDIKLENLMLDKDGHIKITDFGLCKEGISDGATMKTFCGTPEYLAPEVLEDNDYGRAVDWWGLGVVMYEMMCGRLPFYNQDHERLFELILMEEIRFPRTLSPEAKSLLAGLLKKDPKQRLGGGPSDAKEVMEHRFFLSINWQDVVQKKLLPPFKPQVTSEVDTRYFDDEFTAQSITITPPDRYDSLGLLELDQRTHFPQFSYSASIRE

Compound | IC50 (AKT1 WT [1]) | AKT1 E17K IC50: Selectivity vs AKT1 WT (AKT1 E17K) | AKT1 E17K IC50: Selectivity vs AKT2 (AKT1 E17K) | IC50 (AKT1 E17K) | IC50 (AKT2) | selectivity of complex formation, AKT1 E17K versus AKT1 WT (AKT1 E17K mutant protein) | covalent complex formation with AKT1 E17K mutant protein (AKT1 E17K mutant protein) | covalent complex formation with AKT1 E17K mutant protein in presence of competitor (AKT1 E17K mutant protein) | covalent complex formation with AKT1 WT protein (AKT1 WT [2]) | covalent complex formation with AKT1 WT protein in presence of competitor (AKT1 WT [2])
Nc1ncccc1-c1nc2ccc(-c3ccccc3)nc2n1-c1ccc(CNC(=O)c2cc(Cl)c(O)c(C=O)c2)cc1 [Compound 52, N-(4-(2-(2-aminopyridin-3-yl)-5-phenyl-3H-imidazo[4,5-b]pyridin-3-yl)benzyl)-3-chloro-5-formyl-4-hydroxybenzamide] | < 100 nM | 1.2 | 11 | < 100 nM | 100 to 500 nM | selective for complex formation with AKT1 E17K | presence of a covalent complex | Essentially no covalent complex formation | only peaks corresponding to unmodified WT protein | only peaks corresponding to unmodified WT protein
Nc1ncccc1-c1nc2ccc(-c3ccccc3)nc2n1-c1ccc(CNC(=O)c2cc(F)c(O)c(C=O)c2)cc1 [Compound 53, N-({4-[2-(2-aminopyridin-3-yl)-5-phenylimidazo[4,5-b]pyridin-3-yl]phenyl}methyl)-3-fluoro-5-formyl-4-hydroxybenzamide] | < 100 nM | 2.7 | 48 | < 100 nM | 100 to 500 nM | selective for complex formation with AKT1 E17K | presence of a covalent complex | Essentially no covalent complex formation | only peaks corresponding to unmodified WT protein | only peaks corresponding to unmodified WT protein
Nc1ncccc1-c1nc2ccc(-c3ccccc3)nc2n1-c1ccc(CNC(=O)C2(c3cnc(C=O)c(O)c3)CC2)cc1 [Compound 56, N-({4-[2-(2-aminopyridin-3-yl)-5-phenylimidazo[4,5-b]pyridin-3-yl]phenyl}methyl)-1-(6-formyl-5-hydroxypyridin-3-yl)cyclopropane-1-carboxamide] | > 500 nM | 93 | 490 | < 100 nM | > 500 nM |  | small presence of a covalent complex | Essentially no covalent complex formation | presence of a covalent complex | Essentially no covalent complex formation
Nc1ncccc1-c1nc2ccc(-c3ccccc3)nc2n1-c1ccc(CC(=O)NCc2ccc(C=O)c(O)c2)cc1 [Compound 58, 2-{4-[2-(2-aminopyridin-3-yl)-5-phenylimidazo[4,5-b]pyridin-3-yl]phenyl}-N-[(4-formyl-3-hydroxyphenyl)methyl]acetamide] | < 100 nM | 8.6 | 410 | < 100 nM | > 500 nM |  | significant presence of a covalent complex | Essentially no covalent complex formation | presence of a covalent complex | Essentially no covalent complex formation
Nc1ncccc1-c1nc2ccc(-c3ccccc3)nc2n1-c1ccc(CCNCc2ccc(C=O)c(O)c2)cc1 [Compound 72, 4-{[(2-{4-[2-(2-aminopyridin-3-yl)-5-phenylimidazo[4,5-b]pyridin-3-yl]phenyl}ethyl)amino]methyl}-2-hydroxybenzaldehyde] | < 100 nM | 1.7 | 18 | < 100 nM | < 100 nM |  | significant presence of a covalent complex | significantly smaller level of covalent complex formation | significant presence of a covalent complex | Essentially no covalent complex formation
Nc1ncccc1-c1nc2ccc(-c3ccccc3)nc2n1-c1ccc(CNC(=O)Cc2ccc(C=O)c(O)n2)cc1 [Compound 75, N-(4-(2-(2-aminopyridin-3-yl)-5-phenyl-3H-imidazo[4,5-b]pyridin-3-yl)benzyl)-2-(5-formyl-6-hydroxypyridin-2-yl)acetamide] | 100 to 500 nM | 1.7 | 3.7 | 100 to 500 nM | > 500 nM |  | only peaks corresponding to unmodified WT/mutant protein |  | only peaks corresponding to unmodified WT/mutant protein | 
CC(=O)Nc1cc(CC(=O)NCc2ccc(-n3c(-c4cccnc4N)nc4cccnc43)cc2)ccc1C=O [Compound 91, 2-(3-acetamido-4-formylphenyl)-N-(4-(2-(2-aminopyridin-3-yl)-3H-imidazo[4,5-b]pyridin-3-yl)benzyl)acetamide] | 100 to 500 nM | 5 | 120 | < 100 nM | > 500 nM |  | presence of a covalent complex | Essentially no covalent complex formation | presence of a covalent complex | Essentially no covalent complex formation
Nc1ncccc1-c1nc2ccc(N3CCOCC3)nc2n1-c1ccc(CNCCc2ccc(C=O)c(O)c2)cc1 [Compound 107, 4-(2-((4-(2-(2-aminopyridin-3-yl)-5-morpholino-3H-imidazo[4,5-b]pyridin-3-yl)benzyl)amino)ethyl)-2-hydroxybenzaldehyde] | 100 to 500 nM | 3.5 | 76 | < 100 nM | > 500 nM |  | only peaks corresponding to unmodified mutant protein | only peaks corresponding to unmodified mutant protein | only peaks corresponding to unmodified WT protein | only peaks corresponding to unmodified WT protein
Nc1ncccc1-c1nc2cccnc2n1-c1ccc(CNCCc2ccc(C=O)c(O)c2)cc1 [Compound 114, 4-(2-((4-(2-(2-aminopyridin-3-yl)-3H-imidazo[4,5-b]pyridin-3-yl)benzyl)amino)ethyl)-2-hydroxybenzaldehyde] | 100 to 500 nM | 2.2 | 14 | < 100 nM | > 500 nM |  | presence of covalent complex | Essentially no covalent complex formation | presence of covalent complex | Essentially no covalent complex formation
